Legend:
Assay in all cases: two-electrode voltage clamp, Xenopus oocytes
Assay type in all cases: cell-based
α6β3 GABAAR (binary) [1] = molecular target: T1, α6β3 GABAAR (binary) (Mus musculus, UniProt P16305+P63080)
T1 construct: gene Gabra6; full-length cDNAs, injected 1:1 in Xenopus oocyte nucleus; heteropentamer without third subunit

α6β3 GABAAR (binary) [2] = molecular target: T1, α6β3 GABAAR (binary); settings: read-out: IC50 (μM, ± SEM)
Source text: two-electrode voltage clamp, Xenopus oocytes on α6β3 GABAAR (binary)

[3] = molecular target: T2, α6β3δ GABAAR (extrasynaptic) (Mus musculus, UniProt P16305+P22933+P63080); settings: read-out: IC50 (μM, ± SEM)
T2 construct: gene Gabra6; full-length cDNAs, injected 1:1:5 in Xenopus oocyte nucleus; heteropentamer
T2 sequence (P63080 26-473): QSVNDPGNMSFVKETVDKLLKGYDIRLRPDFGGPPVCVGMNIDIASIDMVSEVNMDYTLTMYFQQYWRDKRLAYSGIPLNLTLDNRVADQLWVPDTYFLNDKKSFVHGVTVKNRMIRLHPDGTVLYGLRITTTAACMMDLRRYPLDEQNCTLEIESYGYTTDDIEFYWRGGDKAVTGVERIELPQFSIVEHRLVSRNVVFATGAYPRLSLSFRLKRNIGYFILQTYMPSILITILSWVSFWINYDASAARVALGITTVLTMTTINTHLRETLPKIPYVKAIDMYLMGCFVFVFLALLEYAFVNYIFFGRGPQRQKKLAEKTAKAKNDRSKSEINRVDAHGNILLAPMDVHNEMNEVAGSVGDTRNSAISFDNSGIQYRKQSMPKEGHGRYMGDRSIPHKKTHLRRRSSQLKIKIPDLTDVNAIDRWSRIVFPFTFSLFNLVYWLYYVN
T2 sequence (P22933 25-449): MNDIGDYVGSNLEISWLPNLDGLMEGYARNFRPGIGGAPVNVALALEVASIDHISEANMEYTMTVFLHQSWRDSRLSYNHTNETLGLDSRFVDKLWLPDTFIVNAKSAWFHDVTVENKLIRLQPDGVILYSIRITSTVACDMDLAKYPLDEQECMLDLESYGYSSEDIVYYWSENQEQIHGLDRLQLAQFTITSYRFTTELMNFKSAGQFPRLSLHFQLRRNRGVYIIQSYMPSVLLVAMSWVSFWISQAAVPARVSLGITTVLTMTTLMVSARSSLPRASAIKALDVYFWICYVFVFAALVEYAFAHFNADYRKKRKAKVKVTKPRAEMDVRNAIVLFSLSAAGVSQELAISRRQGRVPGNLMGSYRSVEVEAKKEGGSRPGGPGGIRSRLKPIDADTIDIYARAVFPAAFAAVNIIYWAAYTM
T2 sequence (P16305 20-453): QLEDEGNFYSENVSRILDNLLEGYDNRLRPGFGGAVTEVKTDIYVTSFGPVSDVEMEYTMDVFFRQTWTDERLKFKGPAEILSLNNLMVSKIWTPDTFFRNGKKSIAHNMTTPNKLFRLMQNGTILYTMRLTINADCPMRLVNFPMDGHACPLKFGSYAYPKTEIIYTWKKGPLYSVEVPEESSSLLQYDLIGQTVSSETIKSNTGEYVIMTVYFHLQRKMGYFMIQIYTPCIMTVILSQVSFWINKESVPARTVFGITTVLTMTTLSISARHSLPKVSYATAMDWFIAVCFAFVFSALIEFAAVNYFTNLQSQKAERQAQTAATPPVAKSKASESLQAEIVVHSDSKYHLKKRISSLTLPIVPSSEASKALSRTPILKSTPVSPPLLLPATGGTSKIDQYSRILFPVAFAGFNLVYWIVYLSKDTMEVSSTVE
Source text: two-electrode voltage clamp, Xenopus oocytes on α6β3δ GABAAR (extrasynaptic)

β3 homopentamer = molecular target: T3, β3 homopentamer (Mus musculus, UniProt P63080); settings: current through spontaneously open β3; 1, 10 and 100 μM FPN; no GABA; positive modulator
T3 construct: gene Gabrb3; full-length cDNA in pGW1 (= pRK5), expressed in Xenopus oocytes; homopentamer
T3 sequence (P63080 26-473): as the sequence (P63080 26-473) above

T1 sequence (P16305 20-453): as the sequence (P16305 20-453) above
T1 sequence (P63080 26-473): as the sequence (P63080 26-473) above

SMILES	EC50 (α6β3 GABAAR (binary) [1])	IC50 (α6β3 GABAAR (binary) [2])	IC50 [3]	two-electrode voltage clamp, Xenopus oocytes (β3 homopentamer)
NCCCC(=O)O [GABA]	430 ± 10 nM	–	–	–
N#Cc1nn(-c2c(Cl)cc(C(F)(F)F)cc2Cl)c(N)c1[S+]([O-])C(F)(F)F (stereo not shown) [fipronil]	–	2.4 ± 0.4 µM	20.7 ± 2.6 µM	The current density increases as a function of FPN concentrations
